The values below come from patent US7579469B2, “Glucocorticoid mimetics, methods of making them, pharmaceutical compositions, and uses thereof” (Boehringer Ingelheim Pharmaceuticals, Inc., priority 2003, dated 2009).

This assay deals with T1, human glucocorticoid receptor (GR) complex (Homo sapiens, UniProt P04150).
T1 construct: made in house; host or cells: insect expression system (baculovirus lysate)
T1 sequence (P04150 1-777): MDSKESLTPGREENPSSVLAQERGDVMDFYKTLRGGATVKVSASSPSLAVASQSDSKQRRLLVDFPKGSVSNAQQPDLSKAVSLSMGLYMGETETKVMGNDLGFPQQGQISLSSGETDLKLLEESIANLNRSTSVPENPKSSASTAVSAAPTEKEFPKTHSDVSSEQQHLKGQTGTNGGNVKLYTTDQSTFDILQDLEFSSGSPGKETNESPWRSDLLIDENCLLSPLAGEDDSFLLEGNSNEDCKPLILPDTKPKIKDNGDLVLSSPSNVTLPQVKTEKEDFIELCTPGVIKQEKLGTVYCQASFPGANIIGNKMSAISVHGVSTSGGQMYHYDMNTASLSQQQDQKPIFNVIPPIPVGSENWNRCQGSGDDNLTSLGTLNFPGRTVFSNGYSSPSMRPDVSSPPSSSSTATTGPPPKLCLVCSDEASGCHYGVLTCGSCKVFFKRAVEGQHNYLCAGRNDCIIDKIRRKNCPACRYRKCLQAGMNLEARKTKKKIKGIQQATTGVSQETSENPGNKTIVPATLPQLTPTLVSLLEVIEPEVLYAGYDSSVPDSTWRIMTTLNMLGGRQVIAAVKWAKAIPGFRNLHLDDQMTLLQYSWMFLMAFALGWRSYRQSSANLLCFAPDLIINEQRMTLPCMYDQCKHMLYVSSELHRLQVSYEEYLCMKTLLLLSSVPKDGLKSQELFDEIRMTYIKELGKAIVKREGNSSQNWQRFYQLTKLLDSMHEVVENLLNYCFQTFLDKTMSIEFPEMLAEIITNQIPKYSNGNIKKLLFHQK
In words: Glucocorticoid receptor competitive binding assay (fluorescence polarization). The note with it: competition with TAMRA-labeled dexamethasone. The procedure: Compounds of the invention were evaluated for binding to the steroid receptor by a fluorescence polarization competitive binding assay.
A. Glucocorticoid Receptor Competitive Binding Assay
Step 1. Characterization of the Fluorescent Probe
The wavelengths for maximum excitation and emission of the fluorescent probe should first be measured. An example of such a probe is rhodamine (TAMRA)-labeled dexamethasone.
The affinity of the probe for the steroid receptor was then determined in a titration experiment. The fluorescence polarization value of the probe in assay buffer was measured on an SLM-8100 fluorometer using the excitation and emission maximum values described above. Aliquots of expression vector lysate were added and fluorescence polarization was measured after each addition until no further change in polarization value was observed. Non-linear least squares regression analysis was used to calculate the dissociation constant of the probe from the polarization values obtained for lysate binding to the probe.
Step 2. Screening for Inhibitors of Probe Binding
This assay uses fluorescence polarization (FP) to quantitate the ability of test compounds to compete with tetramethyl rhodamine (TAMRA)-labeled dexamethasone for binding to a human glucocorticoid receptor (GR) complex prepared from an insect expression system. The assay buffer was: 10 mM TES, 50 mM KCl, 20 mM Na2MoO4.2H20, 1.5 mM EDTA, 0.04% w/v CHAPS, 10% v/v glycerol, 1 mM dithiothreitol, pH 7.4. Test compounds were dissolved to 1 mM in neat DMSO and then further diluted to 10× assay concentration in assay buffer supplemented with 10% v/v DMSO. Test compounds were serially diluted at 10× assay concentrations in 10% DMSO-containing buffer in 96-well polypropylene plates. Binding reaction mixtures were prepared in 96-well black Dynex microtiter plates by sequential addition of the following assay components to each well: 15 μL of 10× test compound solution, 85 μL of GR-containing baculovirus lysate diluted 1:170 in assay buffer, and 50 μL of 15 nM TAMRA-labeled dexamethasone. Positive controls were reaction mixtures containing no test compound; negative controls (blanks) were reaction mixtures containing 0.7 μM to 2 μM dexamethasone. […] IC50 values were determined by iterative non-linear curve fitting of the FP signal data to a 4-parameter logistic equation.
A general note: Polarisation of emitted light reports the rotation of a fluorescent probe.
`CC(C)(CC(O)(Cn1ccc(=O)c2ccccc21)C(F)(F)F)c1cccc(F)c1` (stereo not shown) [1-[4-(3-Fluorophenyl)-2-hydroxy-4-methyl-2-trifluoromethylpentyl]-1H-quinolin-4-one]: the “activity in the GR binding assay” value was “potent activity”.
In the case of `CC(C)(CC(O)(Cn1ccc(=O)c2ccccc21)C(F)(F)F)c1cccc(C2OCCCO2)c1` (stereo not shown) [1-[4-(3-[1,3]Dioxan-2-ylphenyl)-2-hydroxy-4-methyl-2-trifluoromethylpentyl]-1H-quinolin-4-one] it was “potent activity”.
`CC(C)(CC(O)(Cn1ccc(=O)c2ccccc21)C(F)(F)F)c1ccc(F)cc1` (stereo not shown) [1-[4-(4-Fluorophenyl)-2-hydroxy-4-methyl-2-trifluoromethylpentyl]-1H-quinolin-4-one]: the “activity in the GR binding assay” value is reported as “potent activity”.
The same measure for `COc1ccc(C(C)=O)cc1C(C)(C)CC(O)(Cn1ccc(=O)c2ccccc21)C(F)(F)F` (stereo not shown) [1-[4-(5-Acetyl-2-methoxyphenyl)-2-hydroxy-4-methyl-2-trifluoromethylpentyl]-1H-quinolin-4-one]: “potent activity”; for `CC(C)(CC(O)(Cn1ccc(=O)c2ccccc21)C(F)(F)F)c1cc(Br)ccc1O` (stereo not shown) [1-[4-(5-Bromo-2-hydroxyphenyl)-2-hydroxy-4-methyl-2-trifluoromethylpentyl]-1H-quinolin-4-one]: “potent activity”; for `COc1ccc(Br)cc1C(C)(C)CC(O)(Cn1ccc(=O)c2ccccc21)C(F)(F)F` (stereo not shown) [1-[4-(5-Bromo-2-methoxyphenyl)-2-hydroxy-4-methyl-2-trifluoromethylpentyl]-1H-quinolin-4-one]: “potent activity”.
In the case of `CC(C)(CC(O)(Cn1ccc(=O)c2ccccc21)C(F)(F)F)c1cc(Cl)cc2c1OCC2` (stereo not shown) [1-[4-(5-Chloro-2,3-dihydrobenzofuran-7-yl)-2-hydroxy-4-methyl-2-trifluoromethylpentyl]-1H-quinolin-4-one] it was “potent activity”; in that of `CC(C)(CC(O)(Cn1[nH]c(=O)c2ccccc21)C(F)(F)F)c1cc(F)ccc1O` (stereo not shown) [1-[4-(5-Fluoro-2-hydroxyphenyl)-2-hydroxy-4-methyl-2-trifluoromethylpentyl]-1,2-dihydroindazol-3-one], “potent activity”.
In the case of `CC(C)(CC(O)(Cn1ccc(=O)c2ncccc21)C(F)(F)F)c1cc(F)ccc1O` (stereo not shown) [1-[4-(5-Fluoro-2-hydroxyphenyl)-2-hydroxy-4-methyl-2-trifluoromethylpentyl]-1H-[1,5]naphthyridin-4-one] it was “potent activity”; in that of `Cc1cn(CC(O)(CC(C)(C)c2cc(F)ccc2O)C(F)(F)F)c(CO)c(C)c1=O` (stereo not shown) [1-[4-(5-Fluoro-2-hydroxyphenyl)-2-hydroxy-4-methyl-2-trifluoromethylpentyl]-2-hydroxymethyl-3,5-dimethyl-1H-pyridin-4-one], “potent activity”; in that of `Cc1cn(CC(O)(CC(C)(C)c2cc(F)ccc2O)C(F)(F)F)cc(C)c1=O` (stereo not shown) [1-[4-(5-Fluoro-2-hydroxyphenyl)-2-hydroxy-4-methyl-2-trifluoromethylpentyl]-3,5-dimethyl-1H-pyridin-4-one], “potent activity”.
For `CC(C)(CC(O)(Cn1cc(CO)c(=O)c2ccccc21)C(F)(F)F)c1cc(F)ccc1O` (stereo not shown) [1-[4-(5-Fluoro-2-hydroxyphenyl)-2-hydroxy-4-methyl-2-trifluoromethylpentyl]-3-hydroxymethyl-1H-quinolin-4-one], the “activity in the GR binding assay” value was “potent activity”.
As to `COc1ccc(F)cc1C(C)(C)CC(C)(O)Cn1cc(C)c(=O)c(C)c1` (stereo not shown) [1-[4-(5-Fluoro-2-methoxyphenyl)-2-hydroxy-2,4-dimethylpentyl]-3,5-dimethyl-1H-pyridin-4-one], the “activity in the GR binding assay” value is “potent activity”.
In the case of `COc1ccc(F)cc1C(C)(C)CC(O)(Cn1[nH]c(=O)c2ccccc21)C(F)(F)F` (stereo not shown) [1-[4-(5-Fluoro-2-methoxyphenyl)-2-hydroxy-4-methyl-2-trifluoromethylpentyl]-1,2-dihydroindazol-3-one], the “activity in the GR binding assay” value is recorded as “potent activity”.
Turning to `COc1ccc(F)cc1C(C)(C)CC(O)(Cn1ncc(=O)c2ccccc21)C(F)(F)F` (stereo not shown) [1-[4-(5-Fluoro-2-methoxyphenyl)-2-hydroxy-4-methyl-2-trifluoromethylpentyl]-1H-cinnolin-4-one], the “activity in the GR binding assay” value was “potent activity”.
As to `COc1ccc(F)cc1C(C)(C)CC(O)(Cn1ccc(=O)c2ccccc21)C(F)(F)F` (stereo not shown) [1-[4-(5-Fluoro-2-methoxyphenyl)-2-hydroxy-4-methyl-2-trifluoromethylpentyl]-1H-quinolin-4-one], the “activity in the GR binding assay” value is on record as “potent activity”.
In the case of `COc1ccc(F)cc1C(C)(C)CC(O)(Cn1cc(C)c(=O)c(C)c1CO)C(F)(F)F` (stereo not shown) [1-[4-(5-Fluoro-2-methoxyphenyl)-2-hydroxy-4-methyl-2-trifluoromethylpentyl]-2-hydroxymethyl-3,5-dimethyl-1H-pyridin-4-one] it was “potent activity”; in that of `COc1ccc(F)cc1C(C)(C)CC(O)(Cn1cc(CO)c(=O)c2ccccc21)C(F)(F)F` (stereo not shown) [1-[4-(5-Fluoro-2-methoxyphenyl)-2-hydroxy-4-methyl-2-trifluoromethylpentyl]-3-hydroxymethyl-1H-quinolin-4-one], “potent activity”.
On to `COc1ccc(F)cc1C(C)(C)CC(O)(Cn1cc(C(F)(F)F)cc([N+](=O)[O-])c1=O)C(F)(F)F` (stereo not shown) [1-[4-(5-Fluoro-2-methoxyphenyl)-2-hydroxy-4-methyl-2-trifluoromethylpentyl]-3-nitro-5-trifluoromethyl-1H-pyridin-2-one], for which the “activity in the GR binding assay” value is listed as “potent activity”.
On to `Cc1ccc(F)cc1C(C)(C)CC(O)(Cn1ccc(=O)c2ncccc21)C(F)(F)F` (stereo not shown) [1-[4-(5-Fluoro-2-methylphenyl)-2-hydroxy-4-methyl-2-trifluoromethylpentyl]-1H-[1,5]naphthyridin-4-one], for which the “activity in the GR binding assay” value is on record as “potent activity”.
On to `Cc1ccc(F)cc1C(C)(C)CC(O)(Cn1cc(C)c(=O)c(C)c1)C(F)(F)F` (stereo not shown) [1-[4-(5-Fluoro-2-methylphenyl)-2-hydroxy-4-methyl-2-trifluoromethylpentyl]-3,5-dimethyl-1H-pyridin-4-one], for which the “activity in the GR binding assay” value was “potent activity”.
For the molecule `COc1ccc(-c2ccoc2)cc1C(C)(C)CC(O)(Cn1ccc(=O)c2ccccc21)C(F)(F)F` (stereo not shown) [1-[4-(5-Furan-3-yl-2-methoxyphenyl)-2-hydroxy-4-methyl-2-trifluoromethylpentyl]-1H-quinolin-4-one], the “activity in the GR binding assay” value is recorded as “potent activity”.
The same measure for `Cc1cc2c(c(C(C)(C)CC(O)(Cn3ccc(=O)c4ccccc43)C(F)(F)F)c1)OCC2` (stereo not shown) [1-[4-(5-Methyl-2,3-dihydrobenzofuran-7-yl)-2-hydroxy-4-methyl-2-trifluoromethylpentyl]-1H-quinolin-4-one]: “potent activity”; for `COc1ccc(C2OCCCO2)cc1C(C)(C)CC(O)(Cn1ccc(=O)c2ccccc21)C(F)(F)F` (stereo not shown) [1-[4-(5-[1,3]Dioxan-2-yl-2-methoxyphenyl)-2-hydroxy-4-methyl-2-trifluoromethylpentyl]-1H-quinolin-4-one]: “potent activity”.
In the case of `CC(C)(CC(O)(Cn1ccc(=O)c2ccccc21)C(F)(F)F)c1cc(Br)cc2c1OCO2` (stereo not shown) [1-[4-(6-Bromobenzo[1,3]dioxol-4-yl)-2-hydroxy-4-methyl-2-trifluoromethylpentyl]-1H-quinolin-4-one] it was “potent activity”.
